Assay: experimentation on patients: sublingual versus traditional oral administration of FANS
Format: in vivo
Conditions: sublingual administration compared with oral formulation of the same agent
Source text: In the performed experimentation, the used sublingual preparations consisted of tablets which can be separated in two parts.

SMILES | therapeutic dose necessary for obtaining the desired anti-inflammatory effect
O=C(O)Cc1ccccc1Nc1c(Cl)cccc1Cl [diclofenac] | reduction of the therapeutic dosage
CC(C)Cc1ccc(C(C)C(=O)O)cc1 (centres unmarked) [ibuprofen] | reduction of the therapeutic dosage
CC(C(=O)O)c1cccc(C(=O)c2ccccc2)c1 (centres unmarked) [ketoprofen] | reduction of the therapeutic dosage
CS(=O)(=O)Nc1ccc([N+](=O)[O-])cc1Oc1ccccc1 [nimesulid, nimesulide] | reduction of the therapeutic dosage
CC(=O)Nc1ccc(O)cc1 [paracetamol] | reduction of the therapeutic dosage

Reference: patent US20060141027A1, “Sublingual administration of non-steroidal anti-inflammatory pharmacological substances” (priority 2003, published 2006)
